The test has as its target MbtA (Mycobacterium tuberculosis, UniProt P71716). Kind of test: […]. The test is classed as biochemical.

Chain of MbtA (P71716 whole entry): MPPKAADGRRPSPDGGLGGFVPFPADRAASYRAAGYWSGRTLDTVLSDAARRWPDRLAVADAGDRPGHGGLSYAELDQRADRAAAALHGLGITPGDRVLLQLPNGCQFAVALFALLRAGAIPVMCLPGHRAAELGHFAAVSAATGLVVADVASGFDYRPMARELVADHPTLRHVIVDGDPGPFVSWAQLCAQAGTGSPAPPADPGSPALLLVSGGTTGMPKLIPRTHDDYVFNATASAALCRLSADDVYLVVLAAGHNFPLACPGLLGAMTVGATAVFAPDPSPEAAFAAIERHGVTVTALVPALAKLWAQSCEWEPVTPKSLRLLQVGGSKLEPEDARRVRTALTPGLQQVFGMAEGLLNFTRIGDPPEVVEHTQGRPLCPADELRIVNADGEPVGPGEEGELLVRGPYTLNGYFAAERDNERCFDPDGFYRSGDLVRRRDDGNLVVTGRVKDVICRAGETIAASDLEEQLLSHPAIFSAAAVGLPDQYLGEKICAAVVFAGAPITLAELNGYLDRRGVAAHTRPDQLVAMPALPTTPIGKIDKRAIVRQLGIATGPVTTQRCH

In the case of Sal-AMS ABP [compound 6], the affinity, expressed as Ki, was 0.94 nM.
